The structures appear in SMILES notation.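 Growth conditions: 96-well plates. Treatment: test compound, 48 hours, 5 concentrations. Analysis: linear interpolation between bracketing concentrations; unreached endpoints set to highest concentration. The concentration for 50% growth inhibition is given as GI50.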 Active and inactive are the calls of the source. No stated cut-off is given here; in the data, active = GI50 up to about 1.1 µM and inactive = higher.

We go through 6 compounds from ChEMBL document CHEMBL1201862, “PubChem BioAssay data set” (2004).

Some test systems named below: HOP-92; SF-268; Hs-578T; SNB-75; HOP-62; NCI-H226; RXF 393; MDA-N; UO-31; UACC-62; NCI-H460; HCT-116; OVCAR-4; EKVX; HCT-15; MDA-MB-231; M14; K562; NCI-H522; 786-0.
Holding throughout (assay): NCI-60 cell line screen, 48 h

For the compound `O=C(O)Cc1cccnc1`, the GI50 in the assay on HOP-92, with SF-268, in the assay with Hs-578T, in the assay on SNB-75, with HOP-62 and in the assay on NCI-H226 was > 100 µM (inactive) each time. The GI50 with RXF 393, in the assay with MDA-N, with UO-31, with UACC-62, with NCI-H460 and in the assay with HCT-116 was > 100 µM (inactive) each time. Moreover, the GI50 in the assay with OVCAR-4 was > 100 µM (inactive); with EKVX it was > 100 µM (inactive); in the assay with HCT-15 it was over 100 µM; in the assay on MDA-MB-231, > 100 µM (inactive); with M14, > 100 µM (inactive); with K562, > 100 µM (inactive). Also, the GI50 with NCI-H522 and in the assay with 786-0 was > 100 µM (inactive) throughout.
As for `COc1cc(NCc2ccc3n2-c2ccccc2OC3)cc(OC)c1OC`, the GI50 in the assay with HOP-92 was 11 µM (inactive); in the assay on SF-268 it was 46.5 µM (inactive); in the assay with Hs-578T, 35.4 µM (inactive); with SNB-75, 23.8 µM (inactive); with HOP-62 it was 43.5 µM (inactive); with NCI-H226 it was 28.8 µM (inactive). For the same compound, the GI50 in the assay with RXF 393 was 24.6 µM (inactive); in the assay with MDA-N, 21.1 µM (inactive); in the assay on UO-31 it was 16.8 µM (inactive); in the assay on UACC-62, 19 µM (inactive); in the assay on NCI-H460 it was 30.1 µM (inactive); in the assay on HCT-116, 27.8 µM (inactive). The GI50 in the assay on OVCAR-4 is 16.1 µM (inactive); with EKVX, 9.71 µM (inactive); with HCT-15, 29.9 µM; in the assay on MDA-MB-231, 14.4 µM (inactive); in the assay with M14, 31 µM (inactive); in the assay with K562 it was 8.36 µM (inactive). The GI50 with NCI-H522 is 12.7 µM (inactive); with 786-0, 47.1 µM (inactive).
For `Nc1ncnc2c1ncn2[C@@H]1C[C@H](NO)[C@@H](O)[C@H]1O`, the GI50 with HOP-92, in the assay with SF-268, in the assay with Hs-578T, with SNB-75, in the assay on HOP-62 and in the assay on NCI-H226 was > 100 µM (inactive) in each case. Besides, the GI50 in the assay on RXF 393 is > 100 µM (inactive); in the assay on MDA-N, > 100 µM (inactive); with UO-31 it was 7.33 µM (inactive); in the assay on UACC-62 it was > 100 µM (inactive); in the assay with NCI-H460 it was > 100 µM (inactive); with HCT-116, 4.88 µM (inactive). For the same compound, the GI50 was > 100 µM (inactive) in the assay on OVCAR-4; > 100 µM (inactive) with EKVX; 16.4 µM with HCT-15; > 100 µM (inactive) in the assay on MDA-MB-231; > 100 µM (inactive) in the assay on M14; 28.1 µM (inactive) with K562. For the same compound, the GI50 with NCI-H522 and with 786-0 was > 100 µM (inactive) throughout.
Take `Cc1nc2c(nc1C)-c1c(c3c(n1C)C(=O)CCC3)C(=O)C2=O`: the GI50 was 1.29 µM (inactive) in the assay with HOP-92; 0.295 µM (active) in the assay with SF-268; 1.42 µM (inactive) in the assay on Hs-578T; 0.931 µM (active) in the assay on SNB-75; 0.885 µM (active) with HOP-62; 1.41 µM (inactive) with NCI-H226. The GI50 with RXF 393 was 0.16 µM (active); in the assay on MDA-N, 0.162 µM (active); with UO-31 it was 0.456 µM (active); in the assay on UACC-62, 0.406 µM (active); with NCI-H460, 1.23 µM (inactive); with HCT-116 it was 0.249 µM (active). Further, the GI50 in the assay with OVCAR-4 was 0.145 µM (active); in the assay on EKVX it was 1.06 µM (active); with HCT-15 it was 0.334 µM; in the assay on MDA-MB-231, 0.264 µM (active); in the assay on M14 it was 0.338 µM (active); in the assay with K562, 0.338 µM (active). The GI50 is 0.434 µM (active) with NCI-H522 and 1.39 µM (inactive) in the assay with 786-0.
Turning to `CC1(C)CC2C=C(C=O)C3(C=O)CC3(C)C2C1` (stereo not given), the GI50 with HOP-92 is 1.95 µM (inactive); in the assay on SF-268, 3.88 µM (inactive); with Hs-578T, 2.24 µM (inactive); with SNB-75 it was 1.89 µM (inactive); with HOP-62, 2.09 µM (inactive); in the assay on NCI-H226, 4.21 µM (inactive). Moreover, the GI50 was 1.94 µM (inactive) in the assay on RXF 393; 2.9 µM (inactive) in the assay with MDA-N; 1.69 µM (inactive) in the assay on UO-31; 5.46 µM (inactive) in the assay with UACC-62; 4.44 µM (inactive) with NCI-H460; 0.847 µM (active) in the assay with HCT-116. For the same compound, the GI50 is 1.73 µM (inactive) with OVCAR-4; 3.4 µM (inactive) in the assay with EKVX; 1.64 µM with HCT-15; 1.91 µM (inactive) in the assay on MDA-MB-231; 2.29 µM (inactive) in the assay on M14; 1.1 µM (active) with K562. In addition, the results for the GI50 in the assay with NCI-H522 and with 786-0 were 1.09 µM (active) and 1.52 µM (inactive), respectively.
On to `N#CCCN(CCC#N)c1ccc(C(/N=N/c2ccccc2)=N\c2ccccc2)cc1`, for which the GI50 in the assay with HOP-92, in the assay with SF-268, with Hs-578T, with SNB-75, in the assay on HOP-62 and with NCI-H226 was > 100 µM (inactive) each time. Moreover, the GI50 in the assay on RXF 393, with MDA-N, in the assay on UO-31, in the assay on UACC-62, with NCI-H460 and in the assay on HCT-116 was > 100 µM (inactive) each time. For the same compound, the GI50 in the assay on OVCAR-4 is > 100 µM (inactive); with EKVX it was > 100 µM (inactive); in the assay with HCT-15 it was over 100 µM; in the assay on MDA-MB-231 it was > 100 µM (inactive); in the assay on M14, > 100 µM (inactive); with K562, > 100 µM (inactive). Also, the figures for the GI50 with NCI-H522 and in the assay on 786-0 were 59.6 µM (inactive) and > 100 µM (inactive), respectively.
